Earlier results as cited in patent US20210244731A1, “TABLET CONTAINING ANTITUMOR AGENT” (FUJIFILM Corporation, priority 2018, published 2021).

Target: T1, FLT3 (Homo sapiens, UniProt P36888)
T1 sequence (P36888 27-993): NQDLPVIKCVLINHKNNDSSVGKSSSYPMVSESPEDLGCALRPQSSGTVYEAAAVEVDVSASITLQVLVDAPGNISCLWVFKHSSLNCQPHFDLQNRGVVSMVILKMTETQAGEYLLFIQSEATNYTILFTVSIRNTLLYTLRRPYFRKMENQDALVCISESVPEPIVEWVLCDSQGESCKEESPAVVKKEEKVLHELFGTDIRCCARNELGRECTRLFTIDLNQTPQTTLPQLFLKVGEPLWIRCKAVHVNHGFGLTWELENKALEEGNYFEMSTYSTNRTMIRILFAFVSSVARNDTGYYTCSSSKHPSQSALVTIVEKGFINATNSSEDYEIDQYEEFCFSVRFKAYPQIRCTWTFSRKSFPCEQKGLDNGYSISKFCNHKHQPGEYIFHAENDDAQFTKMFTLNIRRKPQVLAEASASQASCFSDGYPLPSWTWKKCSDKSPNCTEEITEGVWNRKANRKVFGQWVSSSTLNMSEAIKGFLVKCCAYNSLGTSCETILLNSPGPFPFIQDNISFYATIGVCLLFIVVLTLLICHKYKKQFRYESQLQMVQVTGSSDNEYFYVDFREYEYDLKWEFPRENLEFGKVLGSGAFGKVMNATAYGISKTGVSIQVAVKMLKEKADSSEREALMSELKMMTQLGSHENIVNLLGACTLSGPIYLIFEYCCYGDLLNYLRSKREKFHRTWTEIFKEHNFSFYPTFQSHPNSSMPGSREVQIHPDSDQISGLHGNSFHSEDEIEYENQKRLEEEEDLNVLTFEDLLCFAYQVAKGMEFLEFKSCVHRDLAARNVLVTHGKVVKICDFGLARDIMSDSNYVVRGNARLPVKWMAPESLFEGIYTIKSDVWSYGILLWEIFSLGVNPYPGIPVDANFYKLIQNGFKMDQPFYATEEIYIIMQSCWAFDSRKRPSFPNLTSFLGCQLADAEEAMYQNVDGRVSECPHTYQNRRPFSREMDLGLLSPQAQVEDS
Details: statement of background, WO2015/056683A

FLT3 inhibitory action: FLT3 inhibitory action
Compound: CCCNc1nc(Nc2ccc(C#N)cc2)ncc1C#CCCCNC(=O)[C@H](C)N(C)C(=O)/C=C/CN(C)C [Compound A, (S,E)-N-(1-((5-(2-((4-cyanophenyl)amino)-4-(propylamino)pyrimidin-5-yl)-4-pentyn-1-yl)amino)-1-oxopropan-2-yl)-4-(dimethylamino)-N-methyl-2-butenamide]
